Source: patent US11014934B2, “Antiseptic drug” (AO “TATKHIMFARMPREPARATY”, priority 2017, dated 2021)

Key:
mice = details: intragastric administration on mice; literature and safety data sheets; cited from earlier work
E. coli in the biofilm = test: Antibacterial activity against cells immersed in a biofilm matrix (CFU, drop plate); format: cell-based
Method: (§1) To determine the effectiveness of the antibiotic against bacteria in […], bacteria were grown in Basal medium for 3 days at a temperature of 37° C. without swinging to obtain a dense biofilm [A. R Kayumov, Khakimullina E., Sharafutdinov I, Trizna E., Latypova L., Lien Thi, Margulis A., Bogachev M, Kurbangalieva A. Inhibition of biofilm formation in Bacillus subtilis by new halogenated furanoses. J. Antibiotics.—2014.—V. 68.—No 5.—P. 297-301.]. Then the biofilm was washed with a sterile 0.9% NaCl solution and fresh sterile medium was poured. Antiseptics were added to concentrations (1-16)×MBC (minimum bactericidal concentration) and incubated for 24 hours. Then the culture fluid was removed from the wells, washed once with 0.9% NaCl solution to remove non-adherent cells, and cell viability in biofilms was evaluated by counting CFU by Drop plate analysis [B. Herigstad, M Hamilton, J. Heersink How to optimize the drop plate method for enumerating bacteria. J Microbiol Methods.—2001.—V. 44.—P. 121-129]. To do this, the biofilm was mechanically removed from the surface and homogenized in 0.9% NaCl by pipetting and ultrasonic treatment. Then, serial 10-fold dilutions of the bacterial suspension in 0.9% NaCl were prepared, and 5 μI of each suspension were transferred to plates with dense nutrient medium. CFU was counted from drops containing 5-10 colonies.
(§2) The results of the study of antimicrobial activity against cells of the studied strains immersed in the biofilm matrix, in comparison with miramistin and benzalkonium chloride, are presented in FIGS. 1 and 2.

[1] = system: S.marcescens in the biofilm; test: as above; format: cell-based
Method: as §1, §2

[2] = system: K. pneumonia in the biofilm; test: as above; format: cell-based
Method: as §1, §2

[3] = system: mice of the CD-1 (ICR) line; test: Acute toxicity in mice after intragastric administration; format: in vivo
Method: The study was performed on mice of the CD-1 (ICR) line (6-8 weeks, weight not less than 18 g) of both sexes. […] Mice administered doses were 3000 mg/kg, 2000 mg/kg, 1000 mg/kg, 500 mg/kg and 50 mg/kg.

clinical staphylococci = test: MIC screening, summary for clinical staphylococci; format: cell-based; details: range over clinical staphylococci, one strain excepted
Method: (§3) A comparative assessment of the spectrum of antibacterial action was carried out on archival and clinical strains of gram-positive and gram-negative microorganisms in accordance with the [Opredeleniye chuvstvitel'nosti mikroorganizmov k antibakterial'nym preparatam (Metodicheskiye ukazaniya MUK 4.2.1890-04). Utverzhdeny i vvedeny v deystviye Glavnym gosudarstvennym sanitarnym vrachom Rossiyskoy Federatsii G. G. Onishchenko 04.03.2004 g. Determination of the sensitivity of microorganisms to antibacterial drugs (Guidelines MUK 4.2.1890-04). Approved and put into effect by the Chief State Sanitary Doctor of the Russian Federation G. G. Onishchenko on 4 Mar. 2004].
(§4) The value of the minimum inhibitory concentration (MIC) was determined by the method of serial dilutions on Müller-Hinton broth using 96-well sterile plates. […] The growth of cultures was assessed visually, comparing the growth of microorganisms in the presence of test compounds with the growth of culture without them. […] The first lowest concentration of the studied substance (from a series of consecutive dilutions), where bacterial growth is not visually determined, is considered to be the minimum inhibitory concentration (MIC). MIC was determined by the method of serial dilutions in broth with increment=2, so the differences of neighboring dilutions are not considered to be significant. […]

clinical enterococci = test: MIC screening, summary for clinical enterococci; format: cell-based; details: range over clinical enterococci
Method: as §3, §4

[4] = system: Cells of a light cow embryo (LCE); test: State of the LCE cell monolayer with the drug without the virus; format: cell-based
Method: Cells of a light cow embryo (LCE) are obtained from the Federal State Budgetary Institution “All-Russian Institute of Experimental Veterinary Medicine”, Moscow. Bovine rhinotracheitis virus (herpes virus family), vaccine strain “TK-A (VIEV)-V2” was obtained from the Federal State Budgetary Institution “All-Russian Institute of Experimental Veterinary Medicine”, Moscow.
The virus was incubated in the presence of compound I in a culture medium at 37° C. for one hour at various concentrations; miramistin and benzalkonium chloride served as control preparations. After incubation of the virus with substances, it was added to the cell culture, which was then incubated at 37° C., 5% CO2 for 72 hours.
Evaluation of the cytopathogenic effect was carried out visually by the state of the cell monolayer as compared with the controls (virus without incubation with the drug, the studied drug concentrations without the virus). The virus titer was calculated using the method of Reed-Muench in the modification of Ashmarin and expressed in Ig TCD50/ml.

[5] = both, CD-1 (ICR), mouse, in vivo

## alkyldimethyl(phenylmethyl) ammonium chloride [Benzalconium chloride]
mice
  LD50: 150 mg/kg

## CCCCCCCCCCCC[N+](C)(C)Cc1cnc(C[N+](C)(C)CCCCCCCCCCCC)c2c1COC(CC)O2 (centres unmarked) [Compound I, 5,8-(Bis(methylene (N, N-dimethyl-N-dodecylammonium))-2-ethyl-4H-[1,3]dioxino [4,5-c]pyridiniumdichloride]
E. coli in the biofilm
  activity in the biofilm compared with comparison antiseptics: the same activity as miramistine and benzalconium chloride
[1]
  activity in the biofilm compared with comparison antiseptics: the same activity as miramistine and benzalconium chloride
[2]
  activity in the biofilm compared with comparison antiseptics: the same activity as miramistine and benzalconium chloride
[3]; acute toxicity, oral, mice
  hazard class in accordance with GOST 12.1.007-76: 3rd class of moderately hazardous harmful substances
  toxicity class according to the Globally Harmonized System (GOST 32644-2014): 4th toxicity class
[3]; [5]
  LD16: 788 mg/kg
  LD86: 2623 mg/kg
[3]; both, CD-1 (ICR), mouse, in vivo, 50 mg/kg
  Number of died animals in the group: 0/6
[3]; both, CD-1 (ICR), mouse, in vivo, 500 mg/kg
  Number of died animals in the group: 0/6
[3]; both, CD-1 (ICR), mouse, in vivo, 1000 mg/kg
  Number of died animals in the group: 3/6
[3]; both, CD-1 (ICR), mouse, in vivo, 2000 mg/kg
  Number of died animals in the group: 5/10
[3]; both, CD-1 (ICR), mouse, in vivo, 3000 mg/kg
  Number of died animals in the group: 4/4
Clinical staphylococci
  MIC: 1 to 8 µg/mL
Clinical enterococci
  MIC for clinical enterococci: 0.03 to 4 µg

## CCCCCCCCCCCCCC(=O)NCCC[N+](C)(C)Cc1ccccc1.O.[Cl-] [Miramistin, benzyldimethyl [3-(myristoylamino)propyl]-ammonium chloride monohydrate]
mice
  LD50: 1000 mg/kg
[4]; 50 μg/ml
  destruction of the monolayer, drug without the virus: − (−0-10% destruction of the monolayer)
[4]; 100 μg/ml
  destruction of the monolayer, drug without the virus: − (−0-10% destruction of the monolayer)
[4]; 150 μg/ml
  destruction of the monolayer, drug without the virus: − (−0-10% destruction of the monolayer)
[4]; 200 μg/ml
  destruction of the monolayer, drug without the virus: − (−0-10% destruction of the monolayer)
